Here are results for seven compounds from ChEMBL document CHEMBL5584240, “Evaluation of potency and metabolic stability of diphyllin-derived Vacuolar-ATPase inhibitors” (Eur J Med Chem, 2024).

The source made the active and inactive calls. No cut-off for these calls is given here.

Series [1] deals with HEK293. Kind of series: Cytotoxicity against HEK293 cells incubated for 72 hrs by MTT assay. The class given is toxicity, cell-based. The note with it: human, hek293, 72 h. In general terms: Tetrazolium assays rely on reduction of a dye to a coloured formazan, in cell work by metabolically active cells.
Series [2] is described as follows: Selectivity index, ratio of CC50 for human primary macrophages to EC50 for recombinant Ebola virus Mayinga expressing GFP infected in human primary macrophages. It counts as toxicity. The note with it: read-out: Ratio CC50/EC50.
Series [3] relates to Ebolavirus. In words: Antiviral activity against recombinant Ebola virus Mayinga expressing GFP infected in human primary macrophages assessed as reduction in infectivity pretreated for 1 hr followed by viral infection measured after 24 to 48 hrs by imaging analysis. The class given is functional, organism-based. The note with it: Orthoebolavirus, Primary macrophage.
Series [4] deals with Ebolavirus. Kind of series: Antiviral activity against recombinant Ebola virus Mayinga expressing GFP infected in human HeLa cells with ATP6V0a2 KO assessed as reduction in viral entry into cells pretreated for 1 hr followed by viral infection measured after 24 to 48 hrs by imaging analysis. The note with it: Orthoebolavirus. The class given is functional, organism-based.
The nature of series [5]: Selectivity index, ratio of CC50 for HEK293 cells to EC50 for recombinant Ebola virus Mayinga expressing GFP infected in human HeLa cells with ATP6V0a2 KO. The note with it: read-out: Ratio CC50/EC50. The class given is toxicity, cell-based.
Series [6] relates to A549. Kind of series: Induction of phospholipidosis in NBD-PE-treated human A549 cells at 1 uM incubated for 24 hrs by imaging based analysis. The class given is functional, cell-based.
For series [7], the target named is Voltage-gated inwardly rectifying potassium channel KCNH2 (Homo sapiens, UniProt Q12809). In words: Inhibition of hERG at 10 uM relative to control. It counts as toxicity.
Series [8] concerns A549. Kind of series: Induction of phospholipidosis in NBD-PE-treated human A549 cells at 10 uM incubated for 24 hrs by imaging based analysis. The class given is functional, cell-based.
The nature of series [9]: Tmax in CD-1 mouse at 50 mg/kg, po by LC-MS/MS analysis. It counts as ADME, organism-based. The note with it: in vivo.
Series [10] can be described thus: AUC (0.25 to 24 hrs) in CD-1 mouse at 50 mg/kg, po by LC-MS/MS analysis. The class given is ADME, organism-based. The note with it: in vivo.
Series [11] in a line: AUC (infinity) in CD-1 mouse at 50 mg/kg, po by LC-MS/MS analysis. The note with it: in vivo. It counts as ADME, organism-based.
A short description of series [12]: Half life in CD-1 mouse at 50 mg/kg, po by LC-MS/MS analysis. The note with it: in vivo. The class given is ADME, organism-based.
A short description of series [13]: Apparent volume of distribution during terminal phase in CD-1 mouse at 50 mg/kg, po by LC-MS/MS analysis. It counts as ADME, organism-based. The note with it: in vivo, read-out: Vz/F.
Series [14] can be described thus: MRT in CD-1 mouse at 50 mg/kg, po by LC-MS/MS analysis. It counts as ADME, organism-based. The note with it: in vivo.
A short description of series [15]: Apparent oral clearance in CD-1 mouse at 50 mg/kg, po by LC-MS/MS analysis. The note with it: in vivo. The class given is ADME, organism-based.
Series [16] is described as follows: Cmax in CD-1 mouse at 50 mg/kg, po by LC-MS/MS analysis. It counts as ADME, organism-based. The note with it: in vivo.
Series [17] deals with A549. Kind of series: Induction of phospholipidosis in NBD-PE-treated human A549 cells at 5 to 10 uM incubated for 24 hrs by imaging based analysis. It counts as functional, cell-based. The note with it: dose 5-10 µM.
Series [18] in a line: Oral bioavailability in ICR mouse at 75 mg/kg by LC-MS/MS analysis. It counts as ADME, organism-based. The note with it: in vivo.

Voltage-gated inwardly rectifying potassium channel KCNH2, sequence (Q12809 whole entry): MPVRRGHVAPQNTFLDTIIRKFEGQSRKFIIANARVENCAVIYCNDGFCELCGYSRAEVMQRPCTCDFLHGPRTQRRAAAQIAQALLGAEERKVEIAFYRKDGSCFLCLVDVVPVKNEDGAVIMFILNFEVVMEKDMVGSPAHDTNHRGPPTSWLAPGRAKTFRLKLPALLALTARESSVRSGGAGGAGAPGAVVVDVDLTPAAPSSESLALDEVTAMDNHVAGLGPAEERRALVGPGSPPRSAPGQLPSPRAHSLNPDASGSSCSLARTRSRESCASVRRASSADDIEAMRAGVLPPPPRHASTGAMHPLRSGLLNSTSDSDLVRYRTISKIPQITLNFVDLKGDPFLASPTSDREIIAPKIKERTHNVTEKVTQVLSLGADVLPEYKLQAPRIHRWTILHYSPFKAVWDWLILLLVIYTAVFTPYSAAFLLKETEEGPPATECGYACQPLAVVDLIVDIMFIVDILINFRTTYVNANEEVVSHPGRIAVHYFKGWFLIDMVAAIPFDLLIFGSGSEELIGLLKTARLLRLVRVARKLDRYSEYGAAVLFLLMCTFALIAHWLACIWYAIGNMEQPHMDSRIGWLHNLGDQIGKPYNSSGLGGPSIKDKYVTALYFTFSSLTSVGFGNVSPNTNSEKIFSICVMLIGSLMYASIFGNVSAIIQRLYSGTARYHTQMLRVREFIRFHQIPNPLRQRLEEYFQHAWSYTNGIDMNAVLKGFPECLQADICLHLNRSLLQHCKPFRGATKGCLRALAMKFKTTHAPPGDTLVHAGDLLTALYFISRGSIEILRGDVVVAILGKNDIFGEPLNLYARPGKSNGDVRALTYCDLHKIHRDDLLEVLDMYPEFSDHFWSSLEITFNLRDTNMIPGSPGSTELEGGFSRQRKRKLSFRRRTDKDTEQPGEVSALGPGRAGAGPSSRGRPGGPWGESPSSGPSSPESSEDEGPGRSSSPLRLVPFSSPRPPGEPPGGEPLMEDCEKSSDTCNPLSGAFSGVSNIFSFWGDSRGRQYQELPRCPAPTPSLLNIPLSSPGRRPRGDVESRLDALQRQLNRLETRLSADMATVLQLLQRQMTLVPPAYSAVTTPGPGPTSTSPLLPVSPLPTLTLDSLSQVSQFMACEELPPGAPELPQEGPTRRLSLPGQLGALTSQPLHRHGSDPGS

On to `COc1cc2c(OCCCN3CCN(C)C(=O)C3)c3c(c(-c4ccc5c(c4)OCO5)c2cc1OC)C(=O)OC3`, for which the half-maximal cytotoxic concentration (CC50) (as a rule, the concentration at which the toxic effect on the cells reaches its halfway point) in series [1] is more than 80000 nM. Also, the selectivity ratio in [2] was more than 150; in series [5], more than 340. For the same compound, the EC50 (in general, the concentration giving half of the maximal effect) was 167 nM in series [3] and 74 nM in [4]. Further, the result in [6] was inactive. Moreover, the “inhibition (INH)” value in series [7] worked out at 9%.

`COc1cc2c(O)c3c(c(-c4ccc5c(c4)OCO5)c2cc1OC)C(=O)OC3` [DIPHYLLIN] returned a CC50 in series [1] of more than 80000 nM. The outcome in series [8] was inactive. Moreover, the EC50 in [4] was found to be 1090 nM.

In turn, `COc1cc2c(OC3CCOC3)c3c(c(-c4ccc5c(c4)OCO5)c2cc1OC)C(=O)OC3` (stereo not given) showed a CC50 in [1] of more than 80000 nM. In addition, the Tmax (in general, the time from dosing to the highest level) in series [9] stood at 0.5 h. For the same compound, the selectivity ratio in series [2] was determined as 132; in series [5], 87. In series [10], the AUC(0-t) (in general, exposure summed from dosing to a finite time, without extrapolation to infinity) is 12 µM·h. Further, the AUC (as a rule, concentration integrated over time) in series [11] was 16.455 µM·h. Further, the concentration giving a half-maximal response (EC50) in series [3] was 107 nM; in series [4] it was 40 nM. For the same compound, the t1/2 in [12] stood at 13.5 h. Further, the Vd/F in [13] turned out to be 2.63 L. Moreover, the MRT (as a rule, a mean duration of stay, worked out from the concentration-time curve) in [14] stood at 18 h. Moreover, the CL/F (commonly clearance divided by bioavailability, as obtained after extravascular dosing) in series [15] is 2.25 mL/min. In addition, the Cmax (usually the highest concentration seen after dosing) in [16] stood at 1250 nM. Further, in series [7], the “inhibition (INH)” value worked out at 30%.

For `CCCCc1oc2ccccc2c1C(=O)c1cc(I)c(OCCN(CC)CC)c(I)c1`, the result in series [17] was Active.

The compound `COc1cc2c(OC3CCNCC3)c3c(c(-c4ccc5c(c4)OCO5)c2cc1OC)C(=O)OC3` came in with a CC50 in series [1] of more than 80000 nM. Also, in [9], the Tmax was found to be 2 h. The same compound returned an area under the curve AUC(0-t) in series [10] of 0.636 µM·h. In series [11], this compound returned an area under the curve (AUC) of 2.532 µM·h. The compound further came in with a t1/2 in [12] of 86.2 h. Moreover, the EC50 in series [4] worked out at 32 nM. In addition, the selectivity ratio in series [5] amounted to 510. Further, the Vd/F in series [13] stood at 105 L. In series [14], this compound yielded a mean residence time MRT of 113 h. For the same compound, the CL/F in series [15] was 14.1 mL/min. Moreover, the concentration in series [16] peaked (Cmax) at 151 nM. In addition, the “inhibition (INH)” value in series [7] is reported as 80%.

Regarding `COc1cc2c(OCCCN3CCS(=O)(=O)CC3)c3c(c(-c4ccc5c(c4)OCO5)c2cc1OC)C(=O)OC3`, in series [1], the CC50 is more than 80000 nM. Besides, the values for the selectivity ratio in series [2] and in series [5] were 138 and more than 240, respectively. Moreover, the figures for the EC50 in [3] and in series [4] were 180 nM and 117 nM, respectively. Also, the result in series [6] was inactive. Also, in [7], the “inhibition (INH)” value came out at 21%.

As for `COc1cc2c(O[C@@H]3O[C@H](CO)[C@@H]4OC(C)(C)O[C@@H]4[C@H]3O)c3c(c(-c4ccc5c(c4)OCO5)c2cc1OC)C(=O)OC3`, in [18], the bioavailability (usually dose-corrected exposure relative to a reference, in per cent) stood at 2.5%.
